According to patent US10174015B2, “Substituted heterocyclic derivative, preparation method and use thereof” (Xiamen University, priority 2014, dated 2019):
Read-outs that look alike come from different tables or passages of the source.

Assays:
RAW264.7 cells = assay: Assay on cytotoxicity (CCK8); type: cell-based; conditions: RAW264.7 cells, 3, 10, 30, 100 μM, 24 h and 48 h; compound 9 except at 100 μM
Protocol: RAW264.7 cells in good growing state (purchased from American Type Culture Collection, ATCC, Beijing), at a density of about 80%-90%, were scraped off with a cell scraper to prepare a cell suspension. After counting, the cells were accurately seeded in a 96-well plate, at 100 μL per well, wherein the total number of cells retained the same, at about 20000 cells/well, and the same amount of culture medium (which was DMEM (Gibco, Shanghai) medium containing 10% fetal bovine serum (PAA), 1% penicillin-streptomycin (PAA)) was added. The 96-well plate was placed in an incubator to preincubate for 24 h (37° C., 5% CO2). The marginal wells of the plate were filled with an equal amount of PBS, but were not seeded with cells, so as to prevent evaporation of the culture medium in the experimental group. […] After incubating the plate in the incubator for a period of time (24 or 48 h), 10 μL CCK8 solution was added to each well, and then the plate was incubated in incubator for 1.5 h. the absorbance OD value was determined at 450 nm by microplate reader, and the OD value was proportional to the number of living cells. […]

SNI neuropathic pain = assay: Neuropathic pain mouse model induced by spared nerve injury (SNI); type: in vivo, C57BL/6 mice; conditions: SNI mice; for effect compared to positive control drug gabapentin: 10 mg/kg i.p. vs gabapentin 100 mg/kg, 1 h after administration
Protocol: (§1) In the Experimental example, compounds to be evaluated or compounds to be tested or test compounds used are the Compounds 1-46 prepared in the Examples according to the invention. In the Experimental example, all the agents for injection, including compounds to be evaluated or compounds to be tested or test compounds, and positive control drug, were dissolved in a mixed solvent of PEG400:Tween 80:normal saline (at a volume ratio of 5:5:90), at a concentration of 5 mg/mL.
Neuropathic pain mouse model induced by spared nerve injury (SNI) is a common animal model for studying neuropathic pain medically. The invention uses the model to evaluate the therapeutic effects of the compounds on neuropathic pain, wherein the model can represent peripheral neuropathic pain including, but not limited to post-herpetic neuralgia, pain caused by diabetic perineuropathy, neurothlipsis and exudation caused by tumor, lumbar surgery failure syndrome, neuropathic pain caused by lumbar disc protrusion, postpartum neuralgia, trigeminal neuralgia, chemotherapy-induced multiple neuropathic pain, post-radiotherapy plexopathy, and radicular neuralgia.
C57BL/6 mice (purchased from Shanghai SLAC Laboratory Animal Co., Ltd) were anesthetized by intraperitoneal injection with pentobarbital sodium (40 mg/kg), and skin from knee joint to gluteal region was subjected to skin preparation and disinfection. After the mice were fixed, the knee joint part was cut about 1 cm longitudinally with bistoury, and muscle tissues were separated by blunt dissection to expose sciatic nerve. The tibial and common peroneal nerve branches of sciatic nerve stem were cut off carefully, and the cut was then stitched up. The mice was placed in a clean observation cage. In the sham-operation group, only sciatic nerve was exposed without cutting the tibial and common peroneal nerve branches. From the day before the experiment to 24 h after the operation, the plantar edges of the mice were stimulated everyday by […] (Ugo Basile Company (Italy), Product ID: 37450), and data was collected automatically to obtain the threshold value of mice to mechanical stimulation. […] The positive control drug gabapentin was administered at a dose of 100 mg/kg. All the agents to be injected were dissolved in a mixed solvent of PEG400:Tween 80:normal saline (at a volume ratio of 5:5:90), at a concentration of 5 mg/mL. By comparing the threshold values (the acting force of when the mouse retracting the paw) at different administration time in different administration groups, the compound was evaluated for its analgesic effect on neuropathic pain.

[1] = test system: inflammatory abdominal pain caused by acetic acid; assay: Abdominal inflammatory pain caused by acetic acid; type: in vivo, Kunming mice; conditions: mice, 10 mg/kg i.p. 1 h before acetic acid; indometacin 20 mg/kg (FIG. 4)
Protocol: as §1
Typical model for studying inflammation-induced visceral pain medically was used to evaluate the therapeutic effects of compounds on inflammatory visceral pain. The model can represent general visceral pain including, but not only limited to appendicitis, gastritis, pancreatitis, prostatitis, myocarditis, interstitial cystitis, pain caused by hepatic, gall or kidney stone, irritable bowel syndrome, and chronic pelvic pain syndrome.
Experimental Kunming mice (purchased by Xiamen University Laboratory Animal Center from Shanghai SLAC Laboratory Animal Co., Ltd) were in an experimental environment with free access to food and water for 1 week. The mice were fasted for 24 h before administration. The compound to be evaluated (10 mg/kg) was administered to the mice by intraperitoneal injection at 1 h before administration of acetic acid, wherein the positive control drug indometacin was administered at a dose of 20 mg/kg, and the blank control was normal saline. Acetic acid (50 μL, acetic acid dissolved in normal saline, at a concentration of 5%) was administered to the mice by intraperitoneal injection, and the mice were then placed in the observation cage. A video camera was used to record the behavior of the mice in the following 20 min. Pain-related behavior was analyzed statistically based on torsion times of the mice in said period.

[2] = Stability assays at acidic and basic conditions; type: physicochemical
Protocol: The sample containing the compound to be tested was then incubated in a constant temperature shaker at 37° C. At different time points (0 min, 10 min, 30 min, 1 h, 2 h, 4 h, 6 h, 12 h, 24 h), 50 μL sample was taken and added to 150 μL precooled methanol (containing the internal standard E8, 1 nmol/sample), wherein three parallel samples were prepared for each time point. The samples were then vertically mixed well, and transferred to a sample vial. LC-MS/MS was used to measure the peak area at different time points, Analyst® version 1.4.1. software was used to analyze chromatographic peak, and the content of the target compound was calculated based on the standard curve.

[3] = 10 mg/kg i.p. (gabapentin 100 mg/kg), 4 h after administration
[4] = 10 mg/kg intraperitoneal, 1 h and 4 h after administration (FIGS. 1 and 2)
[5] = PBS pH 5.0, 37° C., read-out: Half-life pH 5.0
[6] = PBS pH 7.4, 37° C., read-out: Half-life pH 7.4

Compound	effect on cell viability (RAW264.7 cells)	effect of inhibiting central neuropathic pain (SNI neuropathic pain; [3])	effect compared to positive control drug gabapentin (SNI neuropathic pain)	analgesic effect (SNI neuropathic pain; 10 mg/kg i.p., 10 h after administration (FIG. 3))	effect of inhibiting central neuropathic pain (SNI neuropathic pain; [4])	effect of inhibiting abdominal inflammatory pain [1]	half-life at 1 μM [2, 5] [h]	half-life at 1 μM [2, 6] [h]
O=C(CCCCCc1ccccc1)N1CCOC1=O [Compound 2, Phenylhexanoyl Oxazolidinone]	no effect on cell viability	retained a relatively strong effect of inhibiting central neuropathic pain	not as effective as the control drug	still had a sustained analgesic effect	significant effects of inhibiting central neuropathic pain	significant effects of inhibiting abdominal inflammatory pain	> 24	> 24
O=C(CCCCCc1cccc(Cl)c1)N1CCOC1=O [Compound 9, 3-Chlorophenylhexanoyl Oxazolidinone]	no effect on cell viability	retained a relatively strong effect of inhibiting central neuropathic pain	not as effective as the control drug	–	significant effects of inhibiting central neuropathic pain	significant effects of inhibiting abdominal inflammatory pain	> 24	> 24
